From US20240261283A1, “PHARMACEUTICAL PREPARATION FOR PREVENTING OR TREATING PULMONARY FIBROSIS” (J2H BIOTECH INC., priority 2021, published 2024)

Tests used:
[1] = tested on: pulmonary fibrosis mouse model induced by radiation; test: Radiation-induced pulmonary fibrosis mouse model, collagen deposition by Masson's trichrome staining of lung tissue; assay type: in vivo, C57BL/6 mice; conditions: radiation 90 Gy to chest; oral, twice a day, 14 days; nintedanib 30 mg/kg (G2), Chemical Formula 1 compound 10 mg/kg (G3), combination 10 + 30 mg/kg (G4); compared to vehicle group (G1)
Protocol: The test compound was administered orally to C57BL/6 male 8-week-old mice, and 1 hour later, radiation (90 Gy, 4 mm collimator) was irradiated to the chest at a size of 3 mm. Afterwards, test compounds were administered orally twice a day for 14 days, and then an autopsy was performed. Mouse lung tissue was fixed with 10% formalin, paraffin sections were made, and the degree of collagen deposition within the tissue was confirmed using trichrome staining.
According to Reference Example 1, test compounds were administered to a mouse model of radiation-induced pulmonary fibrosis and an autopsy was performed. Mouse lung tissue was fixed in 10% neutral formalin for one day and paraffin sections were made. To remove paraffin around the tissue, it was sequentially reacted in xylene, 95, 90, and 70% ethanol solutions for 5 minutes each. To activate the tissue antigen, the tissue was immersed in a 0.1 M citric acid (pH 6.0) solution and boiled for 20 minutes. Then, it was sequentially reacted with Bouin's solution for 1 minute, Weigert's hematoxylin for 10 minutes, Phosphotunstic/phosphomolydic acid for 10 minutes, aniline blue for 5 minutes, and 1% acetic acid for 1 minute. Next, after a dehydration process, it was sealed with a cover glass and observed under a microscope (Carl Zeiss Vision).

[2] = tested on: bleomycin-induced pulmonary fibrosis mouse model; test: Bleomycin-induced pulmonary fibrosis mouse model, hydroxyproline in lung tissue lysate by ELISA; assay type: in vivo, C57BL/6N mice; conditions: oral, twice a day, 14 days
Protocol: C57BL/6N mice were anesthetized using isoflurane. Afterwards, an incision was made in the center of the neck to expose the airway. Bleomycin dissolved in physiological saline injection solution was slowly injected at 1.25 mg/kg into the exposed upper respiratory tract using an insulin syringe. Afterwards, the insulin syringe was removed and the incision was sutured. Afterwards, test compounds were administered orally twice a day for 14 days, and then an autopsy was performed. The mouse's left lung tissue was fixed with 10% formalin, paraffin sections were made, and the degree of lung fibrosis was evaluated using H&E staining. The right lung was tissue lysed for qPCR and hydroxyproline measurements. Afterwards, it was used in each experiment to evaluate the expression of lung fibrosis-related genes and the degree of collagen deposition in the lung.
According to Reference Example 2, test compounds were administered to a mouse model of bleomycin-induced pulmonary fibrosis and an autopsy was performed. The left lung tissue of the mouse was fixed in 10% neutral formalin for one day and paraffin sections were made. To remove paraffin around the tissue, it was sequentially reacted in xylene, 95, 90, and 70% ethanol solutions for 5 minutes each. […] The other half of the tissue was lysed and the lysate was analyzed using a hydroxyproline ELISA kit.

Structure (SMILES)	anti-fibrotic effect of suppressing collagen deposition (trichrome staining, FIGS. 1 and 2) [1]	collagen deposition, primary evaluation index of pulmonary fibrosis (conclusion of Example 2) ([2]; bleomycin-induced model, doses as in Table 2)	expression of hydroxyproline in lung tissue (FIG. 5) ([2]; bleomycin 1.25 mg/kg, Chemical Formula 1 compound 30, 100, 200 mg/kg (G3-G5), combination 60 + 30 mg/kg (G6), nintedanib 60 mg/kg (G7), compared to vehicle group (G2))
C[C@@H]1CN(c2ccc(S(C)(=O)=O)cc2F)CCN1c1nccc(C(=O)N[C@H]2C3CC4CC2C[C@](O)(C4)C3)n1 [compound of Chemical Formula 1, 2-((R)-4-(2-fluoro-4-(methylsulfonyl)phenyl)-2-methylpiperazin-1-yl)-N-((1R,2s,3S,5S,7S)-5-hydroxyadamantan-2-yl)pyrimidine-4-carboxamide]	significantly inhibits collagen deposition	significantly inhibits collagen deposition	–
COC(=O)c1ccc2c(c1)NC(=O)/C2=C(\Nc1ccc(N(C)C(=O)CN2CCN(C)CC2)cc1)c1ccccc1 [nintedanib]	high significance	–	significant differences were confirmed in all administration groups except the nintedanib single administration group (G7)
